Reference: patent US7550507B2, “2-(alpha-hydroxypentyl) benzoate and its preparation and use” (Institute of Materia Medica, Chinese Academy of Medical …, priority 2002, dated 2009)
Where “and” joins values, the source holds several entries; their conditions need not be identical. Equal entries are not always repeated. Marks after values point to notes of the source that are not given here.

How the values were obtained:
rats of permanent MCAO = test: Infarction area after local cerebral ischemia (permanent MCAO) in rats, TTC staining; format: in vivo, male Wistar rats; conditions: 24 hours after MCAO; for infarct area (weight percentage of the infarct tissue to the total cerebral tissue), X ± SD: 200 mg/kg p.o. with HCl (pH 1.6) 0.5 ml, 30 min prior to ischemia, control 26.99 ± 3.51
Experimental: Animal: male Wistar rats (250-280 g), from the Animal Center of the Chinese Academy of Medical Sciences.
dl-PHPB was dissolved in double distilled water.
Methods: Middle cerebral artery occlusion(MCAO): the rats were anesthetized by trichloroacetaldehyde monohydrate (350 mg/kg, ip). The left CCA was exposed through a middle neck incision and was carefully dissected free from surrounding nerves. The ICA and ECA were isolated. Then a 4 cm long 0.26 mm diameter nylon suture was inserted through proximal ECA into ICA for a length of […] from the bifurcation. The wounds were sutured and the rats were released. The room temperature was kept 24-25° C. during the test.
Animals were divided into two groups, 1) administration group: dl-PHPB (200 mg/kg) and HCl (pH 1.6) 0.5 ml (to mimic the acidic condition of the human stomach) were administrated per os (p.o) 30 minutes prior to ischemia; 2) Control group: double-distilled water and HCl (pH 1.6) 0.5 ml were administrated per os (p.o) 30 minutes prior to ischemia.
The anaesthetized animals were decapitated 24 hours after MCAO. Each brain were rapidly removed and kept in ice-cold saline (0-4° C.). After 10 minutes, the coronal section was sliced into five pieces after the removal of bulbus olfactus, cerebellum, and low brain stem. Upon cutting, the first cut was at the center point of the connection line of the polus anterior of cerebrum and the optic chiasm, the second cut was at the site of optic chiasm, the third was at the site of infundibulum stalk, and the fourth was between the infundibulum stalk and the caudal pole of posterior lobe. The sliced brain was kept in a 5 ml solution of TTC (4%) and K2HPO4 (1M), shaded and incubated at 37° C. for 30 minutes. During the incubation, slices were turned over every 7 -8 minutes. […] The infarcted tissue was separated from the normal tissue and weighed. The infarction area is calculated from the weight percentage of the infarct tissue to the total cerebral tissue.

[1] = system: platelet aggregation induced by ADP; test: Platelet aggregation induced by ADP in PRP of rats after oral administration (Born method); format: in vivo, male Wistar rats; conditions: ADP 5 μmol/L
Experimental: Animal: male Wistar rats (260-280 g), from the Animal Center of the Chinese Academy of Medical Sciences.
Potassium 2-(1-hydroxypentyl)-benzoate, dl-PHPB),
ADP, obtained from Shanghai Institute of Biochemistry, Acedemia Sinica.
Equipment: Platelet Aggregometer (type: PAT-4A MEGURO-KU, TOKYO, JAPAN.
Groups: Animals were divided into four groups:
1) Control group: double-distilled water (400 mg/kg) was adimistrated per os (p.o) 30 minutes prior blood sampling;
2) Dl-PHPB (400 mg/kg) was administrated per os (p.o) 30 minutes prior to the blood sampling;
3) Dl-PHPB (400 mg/kg) was administrated per os (p.o) 60 minutes prior to the blood sampling;
4) Dl-PHPB (200 mg/kg) was administrated per os (p.o) 30 minutes prior to the blood sampling;
After oral administration of dl-PHPB, blood was drawn from the carotid of rats at the time points of 30 and 60 minutes, respectively. Platelet rich plasma (PRP) and platelet poor plasma (PPP) were prepared upon common procedure. According to the method described by of Born, PRP (200 μl) was put on the Platelet Aggregometer and pre-incubated at 37° C. for 5 minutes and then ADP with the final concentration of 5 μmol/L was added to induce platelet aggregation. The maximum aggregation was measured 5 minutes after the addition of ADP.

isolated hearts on rats = test: Cardiac arrhythmia induced by ischemia-reperfusion in isolated rat hearts (Langendorff perfusion); set-up: species or system male Wistar rats; conditions: for Duration of Arrhythmia: 15 min ischemia, 30 min reperfusion, control 22.5 ± 9.5; for VT Duration: control 8.2 ± 7.9; for VF Incidence: control 33.3; for Spasmic VT Incidence: control 66.7; for VE Incidence: control 83.3; for VT Incidence: control 100
Experimental: Animals: male Wistar rats, 250-300 g, from the Animal Center of the Chinese Academy of Medical Sciences, randomly grouped.
Langendoff perfusion system;
XD-7100 ECG, Shanghai Medical Electronic Devices Factory
(1) remove the rat heart quickly after decapitation and put it into K—H solution at 4° C., fix the aorta to the perfusion system;
(2) perfuse the heart with K—H solution, 6-8 ml/min, 37±0.5° C., under the pressure of about 60 mmH2O;
(3) connect the two copper electrodes to the cardiac apex and the bottom of the right atria and record the cardiogram;
(4) perporate under the left anterior descending branch of the coronary artery with 3/0 line;
(5) perfuse the heart for 10 minutes and record the normal cardiogram;
(6) ligate the left anterior descending branch of the coronary artery to make myocardial ischemia for 15 minutes;
(7) nip the line and resume the perfusion, record the change of cardiogram for 30 minutes (mainly on VF and Spasmic VT);
(8) dissolve the dl-PHPB at pH 1.5 to a desired concentration, add it into K—H solution to do the experiments.

With CCCCC(O)c1ccccc1C(=O)[O-].[K+] (racemic) [dl-PHPB, Potassium dl-2-(α-hydroxypentyl) benzoate] the “infarct area, individual animals of treated group” value (rats of permanent MCAO; 200 mg/kg p.o. 30 min prior to ischemia, single rats) was 18.79% and 26.01% and 20.24% and 18.24% and 22.74% and 16.84% and 15.93%, the “infarct area (weight percentage of the infarct tissue to the total cerebral tissue), X ± SD” value (rats of permanent MCAO) was 19.83 ± 3.53 % and the “infarct area (weight percentage of the infarct tissue to the total cerebral tissue), X ± SD” value (rats of permanent MCAO; listed as dl-PHBP) was 19.83±3.53%. For the same compound, the Rate of inhibition ([1]; 200 mg/kg p.o., 30 min) was 6.62%, the Rate of inhibition ([1]; 400 mg/kg p.o., 30 min) was 19.31% and the Rate of inhibition ([1]; 400 mg/kg p.o., 60 min) was 10.21%. For the same compound, the “Duration of Arrhythmia” value (isolated hearts on rats; 10^−4 mol/L in K-H solution) was 1.7 ± 0.6 min, the “VT Duration” value (isolated hearts on rats; 10^−4 mol/L) was 1.1 ± 0.6 min and the “VF Incidence” value (isolated hearts on rats; 10^−4 mol/L) was 0%. The “Spasmic VT Incidence” value (isolated hearts on rats; 10^−4 mol/L) was 0* %, the “VE Incidence” value (isolated hearts on rats; 10^−4 mol/L) was 42.9% and the “VT Incidence” value (isolated hearts on rats; 10^−4 mol/L) was 100%. For the same compound, the “Duration of Arrhythmia” value (isolated hearts on rats; 10^−5 mol/L in K-H solution) was 23.3 ± 5.8 min, the “VT Duration” value (isolated hearts on rats; 10^−5 mol/L) was 5.0 ± 6.5 min and the “VF Incidence” value (isolated hearts on rats; 10^−5 mol/L) was 33.3%. The “Spasmic VT Incidence” value (isolated hearts on rats; 10^−5 mol/L) was 50%, the “VE Incidence” value (isolated hearts on rats; 10^−5 mol/L) was 66.7% and the “VT Incidence” value (isolated hearts on rats; 10^−5 mol/L) was 100%.
